Data as given in paper PMC10275055, “Preventing recurrence in Sonic Hedgehog Subgroup Medulloblastoma using the OLIG2 inhibitor CT-179” (Research Square, 2023).
Where two headings read alike, the source gives them in different places.

What was measured:
[1] = molecular target: T1, OLIG2 dimerization (Homo sapiens, UniProt Q13516); assay: FCCS of OLIG2 dimerization in live HEK293 cells co-transfected with OLIG2-eGFP and OLIG2-Tomato; type: cell-based
T1 construct: expressed in transfected cells; host or cells: HEK293
T1 sequence (Q13516 1-323): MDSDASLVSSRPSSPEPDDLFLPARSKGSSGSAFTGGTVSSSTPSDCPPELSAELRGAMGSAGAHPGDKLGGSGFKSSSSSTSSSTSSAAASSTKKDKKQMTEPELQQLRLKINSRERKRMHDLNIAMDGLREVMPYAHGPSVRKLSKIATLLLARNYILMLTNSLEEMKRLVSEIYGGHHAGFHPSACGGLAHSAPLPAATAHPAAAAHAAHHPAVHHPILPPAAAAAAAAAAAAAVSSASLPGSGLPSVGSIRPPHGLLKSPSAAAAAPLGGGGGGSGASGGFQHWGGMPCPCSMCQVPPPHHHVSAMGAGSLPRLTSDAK
Method: HEK293 cells were maintained in a humidified atmosphere containing 5 % CO2 at 37 °C in Dulbecco’s Modified Eagle Medium supplemented with 10 % fetal bovine serum (FBS) and antibiotics (100 U/mL penicillin and 100 μg/mL streptomycin). One day before the transfection, HEK293 cells were split into Lab-Tek 8-well chambered Coverglass (Thermo Fisher Scientific). HEK293 cells on and 8-well chamber were transfected with plasmid DNA (OLIG2-eGFP and OLIG2-Tomato; or with eGFP and Tomato as negative control) using Lipofectamine 2000 (Thermo Fisher Scientific). After the transfection, HEK293 cells were cultured for 24 h at 37 °C. […]
CLSM imaging and FCCS measurements were performed using an LSM880 microscope system (Carl Zeiss, Germany) equipped with an Ar-ion laser with three lines: 458 nm, 488 nm and 514 nm, 543 nm He-Ne laser, and a water immersion objective lens (C-Apochromat, 40×, 1.2 N.A., Corr, Carl Zeiss), and a gallium arsenide phosphide (GaAsP) spectral array detector and photomultiplier tube (PMT) spectral array detector. eGFP and Tomato were excited using 488 nm laser and 543 nm laser, respectively. […] The emitted fluorescence was split by a diffraction grating and detected using a GaAsP detector (wavelength range 496–534 nm for eGFP) and a PMT detector (wavelength range 580–758 nm for Tomato). […]
Data acquired by FCCS was analyzed using the ZEN software (Carl Zeiss). […]

[2] = In vivo pharmacokinetic studies of CT-179 in mice, plasma and brain; design: species or system mice (C57Bl/J6); conditions: mouse; for bioavailability: in vivo, po, PO 20 mg/kg vs IV 1 mg/kg
Method: The in vivo pharmacokinetic studies (EXT-240 and EXT-241) were performed under contract by Biodura Inc.

Compound: Cc1cc(NCCCN(C)C)nc(NC(=O)Nc2ccc(Cl)c(Cl)c2)n1 [CT-179]
- relative cross-correlation amplitude (RCA) ([1]; 1 μM for one hour): significantly decreased
- allosteric factor, nallo ([1]; best fit of RCA dose-response curve): −0.66
- Kp at 4 h ([2]; brain, 4 hours after single PO dose, 20 mg/kg, read-out: brain to plasma (B/P) ratio, average): 6.72
- Kp ([2]; brain, second study, PO doses of 1 and 5 mg/Kg once daily, read-out: estimated brain to plasma ratio): > 10
- bioavailability ([2]; 20 mg/kg, read-out: bioavailability, mean): 75%
- bioavailability ([2]; 20 mg/kg, read-out: bioavailability, range estimated): 58 to 91%
